Experimental data from patent US12291534B2, “Aminonorbornane derivative and manufacture method therefor and use thereof” (TRANSTHERA SCIENCES (NANJING), INC., priority 2018, dated 2025).

How the values were obtained:
[1] = tested on: OCI-LY10 xenograft tumor; test: OCI-LY10 xenograft tumor model in CB17/SCID mice; type: in vivo; details: for anti-tumor activity (in words): OCI-LY10 xenograft tumor model
Procedure: (§1) CB17/SCID female mice with serious immune deficiency were purchased from Beijing Vital River Laboratory Animal Technology Co., Ltd. and bred in SPF animal houses. Human OCI-LY10 cells (Shanghai Junrui-UFBN0102) were cultured in an RPMI 1640 culture medium containing 10% fetal bovine serum, 100 U/mL penicillin and 100 μg/mL streptomycin through monolayer culture in vitro in an incubator (37° C. 5% CO2). Routine treatment was performed twice a week for passaging. At a cell saturation of 80%-90% and a required number, the cells were harvested and counted, 0.2 mL (1×10^7) of OCI-LY10 cells (together with matrigel at a volume ratio of 1:1) were subcutaneously inoculated into the right back of each mouse, and the tumor size could be measured about one week after inoculation. Tumor size was measured using a vernier caliper and tumor volume was calculated using the following formula: tumor volume=(length×width^2)/2.

[2] = tested on: TMD-8 xenograft tumor; test: TMD-8 xenograft tumor model in CB17/SCID mice; type: in vivo; details: for anti-tumor activity (in words): TMD-8 xenograft tumor model
Procedure: as §1, with “TMD-8” for “OCI-LY10”, “Junrui-UFBN1682)” for “Junrui-UFBN0102)”, “C.,” for “C.”, “volume […].” for “volume=(length×width^2)/2.”

[3] = tested on: TMD-8; test: In vitro tumor cell proliferation inhibition (CellTiter-Glo), TMD-8; type: cell-based, human
Procedure: (§2) 2. Experiment on In Vitro Tumor Cell Proliferation Inhibition (1) Method • The tumor cell line (TMD-8/OCY-LY10) was suspended in RPMI1640+FBS10% and cultured in an incubator (37° C. 5% CO2). Cells were passaged periodically, and cells at logarithmic growth phase were collected for plating. • Cell staining was performed with trypan blue and viable cells were counted. • Cell concentration was adjusted to 7000 cells/well with medium. • 90 μL of cell suspension was added to a 96-well plate and cell-free culture medium was added to the blank control wells. • Cells in the 96-well plate were incubated overnight in an incubator (37° C., 5% CO2, 100% relative humidity). • Preparation of 400× compound storage plates: test compounds and reference drug were each dissolved in DMSO and 3× diluted from the highest concentration (400 μM) to the lowest concentration (0.61 μM). • Preparation of 10× compound working solutions: 78 μL of cell culture medium was added to a V-bottom 96-well plate, and 2 μL of the compound was pipetted from the 400× compound storage plate into the 96-well plate. Vehicle control wells and blank control wells were added with 2 μL of DMSO. […] Inhibition rates of compounds at different concentrations were calculated in Excel, followed by plotting the inhibition curves and calculating IC50 values with GraphPad Prism. […]

[4] = molecular target: BTK (C481S) (Homo sapiens (Human), UniProt Q06187, C481S); test: pBTK inhibition in HEK293 cells transfected with BTK(C481S) (ELISA); type: cell-based; details: 2 h incubation
Procedure: For positive (high signal) controls, cells were treated with 0.5% DMSO alone.

[5] = tested on: OCI-LY10; test: In vitro tumor cell proliferation inhibition (CellTiter-Glo), OCI-LY10; type: cell-based, human
Procedure: as §2

BTK (C481S), sequence (Q06187 whole entry C481S): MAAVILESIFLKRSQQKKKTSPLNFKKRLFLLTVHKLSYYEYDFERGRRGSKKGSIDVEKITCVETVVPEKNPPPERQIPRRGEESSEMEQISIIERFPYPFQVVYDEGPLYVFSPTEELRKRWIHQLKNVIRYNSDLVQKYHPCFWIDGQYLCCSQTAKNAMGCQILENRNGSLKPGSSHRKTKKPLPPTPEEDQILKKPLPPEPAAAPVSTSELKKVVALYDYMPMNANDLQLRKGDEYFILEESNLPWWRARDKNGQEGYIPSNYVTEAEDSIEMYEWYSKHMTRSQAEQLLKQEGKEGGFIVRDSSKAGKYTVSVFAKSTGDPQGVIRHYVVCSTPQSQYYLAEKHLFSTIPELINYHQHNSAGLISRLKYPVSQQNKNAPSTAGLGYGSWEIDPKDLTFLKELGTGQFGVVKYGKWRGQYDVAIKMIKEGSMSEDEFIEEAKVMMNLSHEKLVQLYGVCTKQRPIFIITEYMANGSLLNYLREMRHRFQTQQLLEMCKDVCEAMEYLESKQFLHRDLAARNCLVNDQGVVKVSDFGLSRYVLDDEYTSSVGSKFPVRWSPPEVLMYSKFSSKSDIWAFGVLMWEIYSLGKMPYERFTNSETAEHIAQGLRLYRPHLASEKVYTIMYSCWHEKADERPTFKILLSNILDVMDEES

Compound | disappearance of xenograft tumors ([1]; 25 mg/kg bid, after 28 days of administration) | disappearance of xenograft tumors ([1]; 50 mg/kg bid, after 21 days of administration) | anti-tumor activity (in words) [1] | tolerance of tumor-bearing mice ([1]; all dosages (25, 50 mg/kg bid)) | body weight of tumor-bearing mice ([1]; all treatment groups) | fraction of xenograft tumors disappeared ([2]; 50 mg/kg bid, after 27 days of administration) | anti-tumor activity (in words) [2] | tolerance of tumor-bearing mice ([2]; all dosages (25, 50 mg/kg bid)) | body weight of tumor-bearing mice ([2]; all treatment groups) | inhibition of tumor cell proliferation (in words) [3] | IC50 [4] [nM] | inhibition of tumor cell proliferation (in words) [5]
Nc1nccn2c(C34CCC(NC(=O)CN5CCOCC5)(CC3)C4)nc(-c3ccc(C(=O)Nc4cc(C(F)(F)F)ccn4)cc3)c12 [Compound A-10-10, 4-(8-amino-3-(4-(2-morpholinoacetamido)bicyclo[2.2.1]heptan-1-yl)imidazo[1,5-a]pyrazin-1-yl)-N-(4-(trifluoromethyl)pyridin-2-yl)benzamide] | disappeared completely | completely disappeared | extremely strong anti-tumor activity | good tolerance | no significant weight loss | ⅝ | extremely strong anti-tumor activity | good tolerance | no significant weight loss | strong inhibition activity | 63 | strong inhibition activity
C=CC(=O)N1CCC[C@@H](n2nc(-c3ccc(Oc4ccccc4)cc3)c3c(N)ncnc32)C1 [Ibrutinib, reference compound] | – | – | extremely strong anti-tumor activity | – | – | – | extremely strong anti-tumor activity | – | – | strong inhibition activity | – | strong inhibition activity
